Patent US11358970B2, “Artemisinin-derived trimers and tetramers and their use thereof” (priority 2017, dated 2022)
Where two headings read alike, the source gives them in different places.

Legend:
[1] = test system: MOLT4 (human T-cell acute lymphoblastic leukemia); test: MTT cytotoxicity assay, MOLT4 cell line; assay type: cell-based; conditions: read-out: IC50 MOLT4
Description: (§1) Artesunate and dihydroartemisinin were purchased from AK Scientific (Union City, Calif.). CellTiter 96® Non-Radioactive Cell Proliferation Assay (MTT) reagent was purchased from Promega (Madison, Wis.). A549 (human lung carcinoma), HeLa (human cervical carcinoma), MOLT4 (human T-cell acute lymphoblastic leukemia) were purchased from American Type Culture Collection (Manassas, Va.) and cultured in Ham's F-12 K media supplemented with 10% FBS, 100 μg/ml of penicillin and 100 μg/ml of streptomycin. The culture was maintained at 37° C. in a humidified atmosphere of 5% CO2 and 95% air.
(§2) Both reference and test compounds were dissolved in DMSO in a 10-concentration and 3-fold serial dilution format. 50 nl stock solution of test compounds or 25 nl of reference compounds were delivered from the source plate to the wells of 384-well cell culture plates. 25 μl of culture medium containing 2,000 corresponding cancer cells were added to the wells. The plates were incubated at 37° C. in a humidified atmosphere of 5% CO2 and 95% air for 72 hours. 4 μl of MTT Dye Solution was added to each well and the plates were incubated at 37° C. in a CO2 incubator for 4 hours. After incubation, the formazan was produced in the cells. 25 μl of Solubilization/Stop Solution was added to each well and the plates were incubated for another 1 hour at 37° C. in a CO2 incubator to dissolve the formazan crystals.
(§3) The absorbance of each sample was measured at 590 nm using Envision 2104 Multilabel Reader (PerkinElmer, Santa Clara, Calif.). The cell viability was determined based on the quantification of the color intensity in each culture well. The inhibitory curves were plotted and the IC50 values were calculated using GraphPad Prism 4 program based on a sigmoidal dose-response equation.

[2] = test system: HeLa (human cervical carcinoma); test: MTT cytotoxicity assay, HeLa cell line; assay type: cell-based; conditions: read-out: IC50 HeLa
Description: as §1, §2, §3

[3] = test system: HepG2 cell line; test: MTT cytotoxicity assay, HepG2 cell line; assay type: cell-based
Description: as §2, §3

[4] = test system: cytomegalovirus; conditions: relative to artesunate; cited from earlier work
[5] = test system: 23 leukemia cell lines; conditions: average over 23 leukemia cell lines, relative to artesunate; cited from earlier work
[6] = test system: A549 (human lung carcinoma); test: MTT cytotoxicity assay, A549 cell line; assay type: cell-based; conditions: 72 hours; for inhibition at 0.25 µM / inhibition at 0.5 µM / inhibition at 1 µM / inhibition at 0.1 µM: Homo sapiens
Description: as §1, §2, §3

[7] = Homo sapiens, MOLT-4, MOLT4, 72 hours, MTT
[8] = Homo sapiens, HepG2, MTT, read-out: IC50 HepG2
[9] = HepG2, MTT, read-out: IC50 HepG2

C[C@@H]1[C@@H](OC(=O)CCC(=O)NC(COC(=O)CCC(=O)O[C@@H]2O[C@@H]3O[C@@]4(C)CC[C@H]5[C@H](C)CC[C@@H]([C@H]2C)[C@@]35OO4)(COC(=O)CCC(=O)O[C@@H]2O[C@@H]3O[C@@]4(C)CC[C@H]5[C@H](C)CC[C@@H]([C@H]2C)[C@@]35OO4)COC(=O)CCC(=O)O[C@@H]2O[C@@H]3O[C@@]4(C)CC[C@H]5[C@H](C)CC[C@@H]([C@H]2C)[C@@]35OO4)O[C@H]2O[C@@]3(C)CC[C@@H]4[C@@H](C)CC[C@H]1[C@]24OO3 [Compound 13]
IC50 [1, 7]: 150 nM
IC50 ([2]; Homo sapiens, 72 hours, MTT): 14200 nM

C[C@H]1[C@H](OC(=O)CCC(=O)OCC(COC(=O)CCC(=O)O[C@@H]2O[C@@H]3O[C@@]4(C)CC[C@H]5[C@H](C)CC[C@@H]([C@H]2C)[C@@]35OO4)(COC(=O)CCC(=O)O[C@@H]2O[C@@H]3O[C@@]4(C)CC[C@H]5[C@H](C)CC[C@@H]([C@H]2C)[C@@]35OO4)NC(=O)C(F)(F)F)O[C@@H]2O[C@@]3(C)CC[C@H]4[C@H](C)CC[C@@H]1[C@@]24OO3 [Compound 12]
IC50 [3, 8]: 7800 nM

CC(=O)NC(COC(=O)CCC(=O)O[C@@H]1O[C@@H]2O[C@@]3(C)CC[C@H]4[C@H](C)CC[C@@H]([C@H]1C)[C@@]24OO3)(COC(=O)CCC(=O)O[C@@H]1O[C@@H]2O[C@@]3(C)CC[C@H]4[C@H](C)CC[C@@H]([C@H]1C)[C@@]24OO3)COC(=O)CCC(=O)O[C@@H]1O[C@@H]2O[C@@]3(C)CC[C@H]4[C@H](C)CC[C@@H]([C@H]1C)[C@@]24OO3 [Compound 9]
IC50 [1, 7]: 66 nM
IC50 ([2]; Homo sapiens, 72 hours, MTT): 360 nM
IC50 [3, 8]: 310 nM

C[C@@H]1CCC2[C@@H](C)[C@@H](CC(COP(=O)(Oc3ccccc3)Oc3ccccc3)C[C@H]3O[C@@H]4O[C@@]5(C)CCC6[C@H](C)CCC([C@H]3C)[C@]64OO5)O[C@@H]3O[C@@]4(C)CCC1[C@@]23OO4 (some centres unmarked) [ART838]
fold more potent in inhibiting growth of cytomegalovirus than artesunate [4]: 165 fold
folds more potent than artesunate in inhibiting 23 leukemia cell lines (average) [5]: 88 folds

C[C@H]1[C@H](OC(=O)CCC(=O)OCC(COC(=O)CCC(=O)O[C@@H]2O[C@@H]3O[C@@]4(C)CC[C@H]5[C@H](C)CC[C@@H]([C@H]2C)[C@@]35OO4)(COC(=O)CCC(=O)O[C@@H]2O[C@@H]3O[C@@]4(C)CC[C@H]5[C@H](C)CC[C@@H]([C@H]2C)[C@@]35OO4)NC=O)O[C@@H]2O[C@@]3(C)CC[C@H]4[C@H](C)CC[C@@H]1[C@@]24OO3 [Compound 11]
IC50 [3, 8]: 550 nM

C[C@H]1[C@H](OC(=O)CCC(=O)OCCN(CCO)CCN(CCOC(=O)CCC(=O)O[C@@H]2O[C@@H]3O[C@@]4(C)CC[C@H]5[C@H](C)CC[C@@H]([C@H]2C)[C@@]35OO4)CCOC(=O)CCC(=O)O[C@@H]2O[C@@H]3O[C@@]4(C)CC[C@H]5[C@H](C)CC[C@@H]([C@H]2C)[C@@]35OO4)O[C@@H]2O[C@@]3(C)CC[C@H]4[C@H](C)CC[C@@H]1[C@@]24OO3 [Compound 16]
IC50 [1, 7]: 217 nM
IC50 ([2]; Homo sapiens, 72 hours, MTT): 1110 nM

C[C@H]1[C@@H](O)O[C@@H]2O[C@@]3(C)CC[C@H]4[C@H](C)CC[C@@H]1[C@@]24OO3 [Dihydroartemisinin, reference compound]
IC50 [1, 7]: 680 nM
IC50 ([2]; Homo sapiens, 72 hours, MTT): 9340 nM
inhibition at 0.25 µM ([6]; 0.25 μM): 5%
inhibition at 0.5 µM ([6]; 0.5 μM): 10%
inhibition at 1 µM ([6]; 1.0 μM): 20%

C[C@@H]1CC[C@H]2[C@@H](C)C(OC(=O)CN(CC(=O)OC3O[C@@H]4O[C@@]5(C)CC[C@H]6[C@H](C)CC[C@@H]([C@H]3C)[C@@]46OO5)CC(=O)OC3O[C@@H]4O[C@@]5(C)CC[C@H]6[C@H](C)CC[C@@H]([C@H]3C)[C@@]46OO5)O[C@@H]3O[C@@]4(C)CC[C@@H]1[C@]32OO4 (some centres unmarked) [Compound 2]
IC50 ([1]; MOLT4, 72 hours, MTT): 320 nM
IC50 ([2]; 72 hours, MTT): 1140 nM
Inhibition (%) ([6]; 0.1 μM): 12%
Inhibition (%) ([6]; 0.25 μM): 20%
Inhibition (%) ([6]; 0.5 μM): 21%
Inhibition (%) ([6]; 1.0 μM): 40%

C[C@H]1[C@H](OC(=O)CCC(=O)NC(COC(=O)CCC(=O)O[C@@H]2O[C@@H]3O[C@@]4(C)CC[C@H]5[C@H](C)CC[C@@H]([C@H]2C)[C@@]35OO4)COC(=O)CCC(=O)O[C@@H]2O[C@@H]3O[C@@]4(C)CC[C@H]5[C@H](C)CC[C@@H]([C@H]2C)[C@@]35OO4)O[C@@H]2O[C@@]3(C)CC[C@H]4[C@H](C)CC[C@@H]1[C@@]24OO3 [Compound 4]
IC50 [3, 8]: 1790 nM

C[C@H]1[C@H](OC(=O)CCC(=O)OCC(COC(=O)CCC(=O)O[C@@H]2O[C@@H]3O[C@@]4(C)CC[C@H]5[C@H](C)CC[C@@H]([C@H]2C)[C@@]35OO4)(COC(=O)CCC(=O)O[C@@H]2O[C@@H]3O[C@@]4(C)CC[C@H]5[C@H](C)CC[C@@H]([C@H]2C)[C@@]35OO4)NC(=O)OC(C)(C)C)O[C@@H]2O[C@@]3(C)CC[C@H]4[C@H](C)CC[C@@H]1[C@@]24OO3 [Compound 7]
IC50 [1, 7]: 119 nM
IC50 ([2]; Homo sapiens, 72 hours, MTT): 602 nM
inhibition at 0.1 µM ([6]; 0.1 μM): 12%
inhibition at 0.25 µM ([6]; 0.25 μM): 14%
inhibition at 0.5 µM ([6]; 0.5 μM): 21%
inhibition at 1 µM ([6]; 1.0 μM): 40%

CC1CCC2C(C)C(OC(=O)CCC(=O)OCC(COC(=O)CCC(=O)OC3OC4OC5(C)CCC6C(C)CCC(C3C)C46OO5)OC(=O)CCC(=O)OC3OC4OC5(C)CCC6C(C)CCC(C3C)C46OO5)OC3OC4(C)CCC1C32OO4 (centres unmarked) [Compound 3]
IC50 ([1]; MOLT4, 72 hours, MTT): 60 nM
IC50 ([2]; 72 hours, MTT): 630 nM
IC50 [3, 9]: 830 nM

C[C@H]1[C@H](OC(=O)CCC(=O)OCCN(CCOC(=O)CCC(=O)O[C@@H]2O[C@@H]3O[C@@]4(C)CC[C@H]5[C@H](C)CC[C@@H]([C@H]2C)[C@@]35OO4)CCN(CCOC(=O)CCC(=O)O[C@@H]2O[C@@H]3O[C@@]4(C)CC[C@H]5[C@H](C)CC[C@@H]([C@H]2C)[C@@]35OO4)CCOC(=O)CCC(=O)O[C@@H]2O[C@@H]3O[C@@]4(C)CC[C@H]5[C@H](C)CC[C@@H]([C@H]2C)[C@@]35OO4)O[C@@H]2O[C@@]3(C)CC[C@H]4[C@H](C)CC[C@@H]1[C@@]24OO3 [Compound 15]
IC50 [1, 7]: 275 nM
IC50 ([2]; Homo sapiens, 72 hours, MTT): 35200 nM

C[C@H]1[C@H](OC(=O)CC(CC(=O)O[C@@H]2O[C@@H]3O[C@]4(C)CC[C@H]5[C@H](C)CC[C@@H]([C@H]2C)[C@@]35OO4)C(=O)O[C@@H]2O[C@@H]3O[C@]4(C)CC[C@H]5[C@H](C)CC[C@@H]([C@H]2C)[C@@]35OO4)O[C@@H]2O[C@@]3(C)CC[C@H]4[C@H](C)CC[C@@H]1[C@@]24OO3 (some centres unmarked) [Compound 14]
IC50 [3, 9]: 1300 nM

C[C@H]1[C@H](OC(=O)CCC(=O)O)O[C@@H]2O[C@@]3(C)CC[C@H]4[C@H](C)CC[C@@H]1[C@@]24OO3 [Artesunate, reference compound]
IC50 ([1]; Homo sapiens, MOLT-4, 72 h): 1010 nM
IC50 ([2]; Homo sapiens, 72 h): 9570 nM
IC50 ([3]; Homo sapiens, HepG2, read-out: IC50 HepG2): 11200 nM

C[C@H]1[C@H](OC(=O)CCC(=O)OCCN(CCOC(=O)CCC(=O)O[C@@H]2O[C@@H]3O[C@]4(C)CC[C@H]5[C@H](C)CC[C@@H]([C@H]2C)[C@@]35OO4)CCOC(=O)CCC(=O)O[C@@H]2O[C@@H]3O[C@]4(C)CC[C@H]5[C@H](C)CC[C@@H]([C@H]2C)[C@@]35OO4)O[C@@H]2O[C@@]3(C)CC[C@H]4[C@H](C)CC[C@@H]1[C@@]24OO3 [Compound 1]
IC50 [1, 7]: 318 nM
IC50 ([2]; Homo sapiens, 72 hours, MTT): 1720 nM
inhibition at 0.1 µM ([6]; 0.1 μM): 10%
inhibition at 0.25 µM ([6]; 0.25 μM): 14%
inhibition at 0.5 µM ([6]; 0.5 μM): 20%
inhibition at 1 µM ([6]; 1.0 μM): 47%
